Data: the NIST ThermoML archive (doi:10.1016/j.fluid.2005.03.023)
Numbers after ± are expanded uncertainties.

Experiments:
[1] = Molar enthalpy of transition or fusion; conditions: Crystal; DSC
[2] = Crystal; DTA

Compound | Molar enthalpy of transition or fusion [1] [kcal/mol] | Normal melting temperature [2] [°C]
CC(=O)c1cccc(O)c1 [1-(3-hydroxyphenyl)ethanone] | 5.58 ± 0.165 | 93.6 ± 0.5
CC(=O)c1ccc(O)cc1 [4'-hydroxyacetophenone] | 4.07 ± 0.127 | 108.2 ± 0.5
CC(=O)c1ccc(N)cc1 [4-acetylaniline] | 4.67 ± 0.141 | 105.1 ± 0.5
CC(=O)Nc1ccccc1 [N-phenylethanamide] | 5.12 ± 0.153 | 113.8 ± 0.5
